No end group written: not given here.
Test: physchem
Details: water

Row | Sequence | solubility [µg/mL]
1 | EAKSSIAKHFSLWKSYADADIKNSENK [A] | 2000
2 | FHNSNSRILFNQENNNFMYS [B] | 2000

From article PMC2949846 (Virology Journal, 2010)
